Measurements reported in patent US20240254118A1, “PRMT5 INHIBITORS AND USES THEREOF” (Gilead Sciences, Inc., priority 2022, published 2024).

Columns and labels:
[1] = system: HCT116 MTAP-deleted cells; test: Cell viability assay (CellTiter-Glo, 7 days), HCT116 MTAP-deleted; details: Homo sapiens, HCT-116, 168 h
[2] = system: SDMA signal (PRMT5 inhibition) in HCT116 MTAP-deleted cells; test: Symmetric di-methyl arginine image-based high content screen assay (SDMA assay), HCT116 MTAP-deleted; format: cell-based; details: SDMA assay; for EC50: Homo sapiens, HCT-116, 72 h, 3 days of treatment, cell line not given, taken as HCT116 MTAP-deleted, read-out: EC50 (SDMA assay); for EC50 selectivity (SDMA assay): taken as HCT116 WT versus MTAP-deleted
In short: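 HCT116 MTAP-deleted cells treated with compound until Day 3, then formalin-fixed, permeabilized and immunostained for SDMA, with DAPI nuclear counterstain. Imaged by high-content microscopy; SDMA read-out is mean Alexa 488 intensity per DAPI-defined cell, reflecting PRMT5 inhibition.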

| Compound | EC50 [2] [nM] | EC50 selectivity (SDMA assay) [2] | CC50 [1] [nM] |
| --- | --- | --- | --- |
| CC(=O)N(C)N(Cc1ccc2nc(C)sc2c1)C(=O)c1ccc2nc(N)c3cnn(C)c3c2c1 [Example 321, N′-acetyl-4-amino-N′,1-dimethyl-N-((2-methylbenzo[d]thiazol-6-yl)methyl)-1H-pyrazolo[4,3-c]quinoline-8-carbohydrazide] | < 1 | 85 | < 100 |
| Cn1ncc2c(N)nc3ccc(C(=O)N(Cc4ccc(C(F)(F)F)cc4F)n4cnc5ccccc54)cc3c21 [Example 322, 4-amino-N-(1H-benzo[d]imidazol-1-yl)-N-(2-fluoro-4-(trifluoromethyl)benzyl)-1-methyl-1H-pyrazolo[4,3-c]quinoline-8-carboxamide] | < 1 | 34 | < 100 |
| CN(C(=O)C1CC1)N(Cc1ccc2nc(C(F)(F)F)sc2c1)C(=O)c1ccc2nc(N)c3cnn(C)c3c2c1 [Example 323, 4-amino-N′-(cyclopropanecarbonyl)-N′,1-dimethyl-N-((2-(trifluoromethyl)benzo[d]thiazol-6-yl)methyl)-1H-pyrazolo[4,3-c]quinoline-8-carbohydrazide] | 1 to 5 | 44 | < 100 |
| [2H]C([2H])([2H])N(C(=O)C1CC1)N(Cc1ccc(C(F)(F)F)cn1)C(=O)c1ccc2nc(N)c3cnn(C)c3c2c1 [Example 325, 4-amino-N′-(cyclopropanecarbonyl)-1-methyl-N′-(methyl-d3)-N-((5-(trifluoromethyl)pyridin-2-yl)methyl)-1H-pyrazolo[4,3-c]quinoline-8-carbohydrazide] | < 1 | 103 | < 100 |
| CC(=O)N(C)N(Cc1ccc2scnc2c1)C(=O)c1ccc2nc(N)c3cnn(C)c3c2c1 [Example 327, N′-acetyl-4-amino-N-(benzo[d]thiazol-5-ylmethyl)-N′,1-dimethyl-1H-pyrazolo[4,3-c]quinoline-8-carbohydrazide] | 1 to 5 | 549 | < 100 |
| CC(=O)N(C)N(Cc1ccc2scnc2c1)C(=O)c1cc2c(cc1F)nc(N)c1cnn(C)c12 [Example 328, N′-acetyl-4-amino-N-(benzo[d]thiazol-5-ylmethyl)-7-fluoro-N′,1-dimethyl-1H-pyrazolo[4,3-c]quinoline-8-carbohydrazide] | 1 to 5 | 143 | < 100 |
| Cn1ncc2c(N)nc3cc(F)c(C(=O)N(Cc4ccc(C(F)(F)F)cn4)NC(=O)C45CC(C4)C5)cc3c21 [Example 333, 4-amino-N′-(bicyclo[1.1.1]pentane-1-carbonyl)-7-fluoro-1-methyl-N-((5-(trifluoromethyl)pyridin-2-yl)methyl)-1H-pyrazolo[4,3-c]quinoline-8-carbohydrazide] | < 1 | 317 | < 100 |
| CC(=O)N(C)N(Cc1ccc2oc(C)nc2c1)C(=O)c1ccc2nc(N)c3cnn(C)c3c2c1 [Example 334, N′-acetyl-4-amino-N′,1-dimethyl-N-((2-methylbenzo[d]oxazol-5-yl)methyl)-1H-pyrazolo[4,3-c]quinoline-8-carbohydrazide] | 1 to 5 | 178 | 100 to 1000 |
| CC(=O)N(C)N(Cc1ccc2nc(C)oc2c1)C(=O)c1ccc2nc(N)c3cnn(C)c3c2c1 [Example 335, N′-acetyl-4-amino-N′,1-dimethyl-N-((2-methylbenzo[d]oxazol-6-yl)methyl)-1H-pyrazolo[4,3-c]quinoline-8-carbohydrazide] | 1 to 5 | 272 | < 100 |
| Cn1ncc2c(N)nc3ccc(C(=O)N(Cc4ccc(C(F)(F)F)cn4)N4CCC5(CC5)OC4=O)cc3c21 [Example 336, 4-amino-1-methyl-N-(5-oxo-4-oxa-6-azaspiro[2.5]octan-6-yl)-N-((5-(trifluoromethyl)pyridin-2-yl)methyl)-1H-pyrazolo[4,3-c]quinoline-8-carboxamide] | 1 to 5 | 94 | < 100 |
| CC(=O)N(C)N(Cc1ccc2nc(C(F)(F)F)sc2c1)C(=O)c1ccc2nc(N)c3cnn(C)c3c2c1 [Example 337, N′-acetyl-4-amino-N′,1-dimethyl-N-((2-(trifluoromethyl)benzo[d]thiazol-6-yl)methyl)-1H-pyrazolo[4,3-c]quinoline-8-carbohydrazide] | 1 to 5 | 67 | < 100 |
| CN(C(=O)C1(C(F)F)CC1)N(Cc1ccc(C(F)(F)F)cn1)C(=O)c1ccc2nc(N)c3cnn(C)c3c2c1 [Example 339, 4-amino-N′-(1-(difluoromethyl)cyclopropane-1-carbonyl)-N′,1-dimethyl-N-((5-(trifluoromethyl)pyridin-2-yl)methyl)-1H-pyrazolo[4,3-c]quinoline-8-carbohydrazide] | 1 to 5 | 280 | 100 to 1000 |
| CC(=O)N(C1COC1)N(Cc1ccc(C(F)(F)F)cc1F)C(=O)c1ccc2nc(N)c3cnn(C)c3c2c1 [Example 340, N′-acetyl-4-amino-N-(2-fluoro-4-(trifluoromethyl)benzyl)-1-methyl-N′-(oxetan-3-yl)-1H-pyrazolo[4,3-c]quinoline-8-carbohydrazide] | < 1 | 50 | < 100 |

The next lines start with results.

| EC50 [2] [nM] | EC50 selectivity (SDMA assay) [2] | Compound | CC50 [1] [nM] |
| --- | --- | --- | --- |
| < 1 | 130 | Cc1cc(CN(C(=O)c2ccc3nc(N)c4cnn(C)c4c3c2)N(C)C(=O)C2CC2)c(F)cc1-c1cnn(C(F)F)c1 [Example 318, 4-amino-N′-(cyclopropanecarbonyl)-N-(4-(1-(difluoromethyl)-1H-pyrazol-4-yl)-2-fluoro-5-methylbenzyl)-N′,1-dimethyl-1H-pyrazolo[4,3-c]quinoline-8-carbohydrazide] | < 100 |
| < 1 | 111 | CN(C(=O)C1CC1)N(Cc1ccc(C(F)F)cc1F)C(=O)c1ccc2nc(N)c3cnn(C)c3c2c1 [Example 324, 4-amino-N′-(cyclopropanecarbonyl)-N-(4-(difluoromethyl)-2-fluorobenzyl)-N′,1-dimethyl-1H-pyrazolo[4,3-c]quinoline-8-carbohydrazide] | < 100 |
| < 1 | 114 | [2H]C([2H])([2H])N(C(=O)C1CC1)N(Cc1ccc(C(F)(F)F)cn1)C(=O)c1ccc2nc(N)c3cnn(C([2H])([2H])[2H])c3c2c1 [Example 326, 4-amino-N′-(cyclopropanecarbonyl)-N′,1-bis(methyl-d3)-N-((5-(trifluoromethyl)pyridin-2-yl)methyl)-1H-pyrazolo[4,3-c]quinoline-8-carbohydrazide] | < 100 |
| < 1 | 134 | CC(=O)N(C)N(Cc1ccc(Cl)cc1Cl)C(=O)c1ccc2nc(N)c3cnn(C)c3c2c1 [Example 329, N′-acetyl-4-amino-N-(2,4-dichlorobenzyl)-N′,1-dimethyl-1H-pyrazolo[4,3-c]quinoline-8-carbohydrazide] | < 100 |
| < 1 | 225 | Cn1ncc2c(N)nc3ccc(C(=O)N(Cc4ccc(C(F)(F)F)cn4)NC(=O)OC4CCC4)cc3c21 [Example 330, cyclobutyl 2-(4-amino-1-methyl-1H-pyrazolo[4,3-c]quinoline-8-carbonyl)-2-((5-(trifluoromethyl)pyridin-2-yl)methyl)hydrazine-1-carboxylate] | < 100 |
| < 1 | 37 | Cn1ncc2c(N)nc3cc(F)c(C(=O)N(Cc4ccc(C(F)(F)F)cn4)NC(=O)OC4CCC4)cc3c21 [Example 331, cyclobutyl 2-(4-amino-7-fluoro-1-methyl-1H-pyrazolo[4,3-c]quinoline-8-carbonyl)-2-((5-(trifluoromethyl)pyridin-2-yl)methyl)hydrazine-1-carboxylate] | < 100 |
| < 1 | 308 | Cn1ncc2c(N)nc3ccc(C(=O)N(Cc4ccc(C(F)(F)F)cn4)NC(=O)C45CC(C4)C5)cc3c21 [Example 332, 4-amino-N′-(bicyclo[1.1.1]pentane-1-carbonyl)-1-methyl-N-((5-(trifluoromethyl)pyridin-2-yl)methyl)-1H-pyrazolo[4,3-c]quinoline-8-carbohydrazide] | < 100 |
| < 1 | 373 | CN(C(=O)C12CC(C1)C2)N(Cc1ccc2ncsc2c1)C(=O)c1ccc2nc(N)c3cnn(C)c3c2c1 [Example 338, 4-amino-N-(benzo[d]thiazol-6-ylmethyl)-N′-(bicyclo[1.1.1]pentane-1-carbonyl)-N′,1-dimethyl-1H-pyrazolo[4,3-c]quinoline-8-carbohydrazideide] | < 100 |
| 1 to 5 | 188 | CC(=O)N(CC1CC1)N(Cc1ccc(C(F)(F)F)cn1)C(=O)c1ccc2nc(N)c3cnn(C)c3c2c1 [Example 341, N′-acetyl-4-amino-N′-(cyclopropylmethyl)-1-methyl-N-((5-(trifluoromethyl)pyridin-2-yl)methyl)-1H-pyrazolo[4,3-c]quinoline-8-carbohydrazide] | < 100 |
| 1 to 5 | 30 | CN(C(=O)C(F)(F)C1CC1)N(Cc1ccc(C(F)(F)F)cn1)C(=O)c1ccc2nc(N)c3cnn(C)c3c2c1 [Example 342, 4-amino-N′-(2-cyclopropyl-2,2-difluoroacetyl)-N′,1-dimethyl-N-((5-(trifluoromethyl)pyridin-2-yl)methyl)-1H-pyrazolo[4,3-c]quinoline-8-carbohydrazide] | < 100 |
